Columns and labels:
[1] = target: T1, Adrenergic receptor alpha-1 (Rattus norvegicus, UniProt P15823+P23944+P43140); assay: The compound was tested for binding affinity on [3H]- prazosin as specific ligand on alpha-1 adrenergic receptor cells in rat cerebral cortex; assay type: tissue-based
T1 sequence (P15823 whole entry): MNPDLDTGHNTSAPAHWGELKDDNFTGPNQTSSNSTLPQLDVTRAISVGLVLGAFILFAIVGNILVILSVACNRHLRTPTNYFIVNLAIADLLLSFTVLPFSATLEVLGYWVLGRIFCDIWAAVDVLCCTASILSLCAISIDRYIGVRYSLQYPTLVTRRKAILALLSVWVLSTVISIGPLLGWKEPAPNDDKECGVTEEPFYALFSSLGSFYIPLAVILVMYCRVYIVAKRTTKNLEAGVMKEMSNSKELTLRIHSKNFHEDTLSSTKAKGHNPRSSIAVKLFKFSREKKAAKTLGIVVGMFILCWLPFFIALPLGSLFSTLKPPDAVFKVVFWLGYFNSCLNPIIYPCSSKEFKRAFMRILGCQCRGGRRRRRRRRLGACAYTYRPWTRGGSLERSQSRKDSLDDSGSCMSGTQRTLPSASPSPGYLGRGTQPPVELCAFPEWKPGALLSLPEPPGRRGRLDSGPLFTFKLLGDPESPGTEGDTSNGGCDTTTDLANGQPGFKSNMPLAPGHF
T1 sequence (P23944 whole entry): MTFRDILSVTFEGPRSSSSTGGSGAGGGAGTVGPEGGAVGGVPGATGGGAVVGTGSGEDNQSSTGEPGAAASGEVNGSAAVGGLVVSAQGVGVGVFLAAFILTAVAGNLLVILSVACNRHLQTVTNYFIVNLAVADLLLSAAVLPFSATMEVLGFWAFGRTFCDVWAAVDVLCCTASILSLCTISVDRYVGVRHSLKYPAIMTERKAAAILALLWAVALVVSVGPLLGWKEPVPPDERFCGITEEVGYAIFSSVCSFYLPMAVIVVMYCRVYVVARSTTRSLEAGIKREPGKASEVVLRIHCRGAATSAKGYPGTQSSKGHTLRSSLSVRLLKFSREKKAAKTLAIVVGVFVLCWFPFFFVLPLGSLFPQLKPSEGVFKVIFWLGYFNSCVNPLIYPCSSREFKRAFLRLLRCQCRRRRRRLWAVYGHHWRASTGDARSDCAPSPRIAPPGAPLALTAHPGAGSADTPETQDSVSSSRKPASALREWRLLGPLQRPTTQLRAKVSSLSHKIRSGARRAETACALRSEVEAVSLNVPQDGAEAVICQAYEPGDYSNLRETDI
T1 sequence (P43140 whole entry): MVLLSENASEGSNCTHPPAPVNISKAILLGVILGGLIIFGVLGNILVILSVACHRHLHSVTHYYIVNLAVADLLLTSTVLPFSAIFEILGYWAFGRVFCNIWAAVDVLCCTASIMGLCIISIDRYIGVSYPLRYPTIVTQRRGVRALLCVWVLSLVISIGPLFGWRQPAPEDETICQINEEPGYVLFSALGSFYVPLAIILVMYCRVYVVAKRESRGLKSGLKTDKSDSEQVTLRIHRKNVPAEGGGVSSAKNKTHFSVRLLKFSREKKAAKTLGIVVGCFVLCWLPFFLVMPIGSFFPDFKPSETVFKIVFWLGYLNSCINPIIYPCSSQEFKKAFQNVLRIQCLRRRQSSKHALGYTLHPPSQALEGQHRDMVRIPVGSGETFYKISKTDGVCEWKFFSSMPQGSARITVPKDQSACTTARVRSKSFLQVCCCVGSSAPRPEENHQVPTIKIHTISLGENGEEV

[2] = Ratio of the binding affinities against 5-HT1A and alpha-1-adrenoceptor from rat brain membranes.; assay type: cell membranes; settings: Membrane
[3] = target: T2, Alpha-1B adrenergic receptor (Homo sapiens, UniProt P35368); assay: The compound was tested for binding affinity on [3H]- prazosin as specific ligand on Human cloned alpha-1B adrenergic receptor in CHO cells; assay type: cell-based
T2 sequence (P35368 whole entry): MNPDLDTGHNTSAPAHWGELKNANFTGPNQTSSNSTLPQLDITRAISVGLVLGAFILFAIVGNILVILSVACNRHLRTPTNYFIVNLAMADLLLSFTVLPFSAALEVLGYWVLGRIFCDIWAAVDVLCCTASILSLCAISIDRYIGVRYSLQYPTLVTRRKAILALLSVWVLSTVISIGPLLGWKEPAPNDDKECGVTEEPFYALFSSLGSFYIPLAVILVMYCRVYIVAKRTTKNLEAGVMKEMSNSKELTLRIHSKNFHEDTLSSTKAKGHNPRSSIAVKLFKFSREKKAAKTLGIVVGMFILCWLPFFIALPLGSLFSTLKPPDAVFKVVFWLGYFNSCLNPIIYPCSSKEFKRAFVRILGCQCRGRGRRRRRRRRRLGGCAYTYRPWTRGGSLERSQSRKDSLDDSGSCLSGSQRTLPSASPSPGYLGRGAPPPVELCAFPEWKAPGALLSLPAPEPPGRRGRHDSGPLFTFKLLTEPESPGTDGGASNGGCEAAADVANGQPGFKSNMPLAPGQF

[4] = target: T3, 5-hydroxytryptamine receptor 1A (Rattus norvegicus, UniProt P19327); assay: The compound was tested for binding affinity on [3H]8-OH-DPAT as specific ligand on 5-hydroxytryptamine 1A receptor in rat hippocampus; assay type: tissue-based
T3 sequence (P19327 whole entry): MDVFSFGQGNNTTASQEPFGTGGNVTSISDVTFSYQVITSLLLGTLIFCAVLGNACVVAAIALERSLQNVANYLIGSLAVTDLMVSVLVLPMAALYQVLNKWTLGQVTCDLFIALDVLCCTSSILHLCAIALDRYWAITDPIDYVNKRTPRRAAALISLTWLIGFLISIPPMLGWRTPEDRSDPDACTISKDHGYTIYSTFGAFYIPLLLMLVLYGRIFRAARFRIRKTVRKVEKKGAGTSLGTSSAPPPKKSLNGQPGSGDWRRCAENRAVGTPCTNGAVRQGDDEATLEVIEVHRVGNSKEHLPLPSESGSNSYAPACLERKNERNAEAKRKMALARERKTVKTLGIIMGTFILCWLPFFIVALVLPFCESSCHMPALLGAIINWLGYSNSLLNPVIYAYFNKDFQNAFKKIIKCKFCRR

[5] = target: T4, Alpha-1A adrenergic receptor (Homo sapiens, UniProt P35348); assay: The compound was tested for binding affinity on [3H]- prazosin as specific ligand on Human cloned alpha-1A adrenergic receptor expressed in CHO cells; assay type: cell-based
T4 sequence (P35348 whole entry): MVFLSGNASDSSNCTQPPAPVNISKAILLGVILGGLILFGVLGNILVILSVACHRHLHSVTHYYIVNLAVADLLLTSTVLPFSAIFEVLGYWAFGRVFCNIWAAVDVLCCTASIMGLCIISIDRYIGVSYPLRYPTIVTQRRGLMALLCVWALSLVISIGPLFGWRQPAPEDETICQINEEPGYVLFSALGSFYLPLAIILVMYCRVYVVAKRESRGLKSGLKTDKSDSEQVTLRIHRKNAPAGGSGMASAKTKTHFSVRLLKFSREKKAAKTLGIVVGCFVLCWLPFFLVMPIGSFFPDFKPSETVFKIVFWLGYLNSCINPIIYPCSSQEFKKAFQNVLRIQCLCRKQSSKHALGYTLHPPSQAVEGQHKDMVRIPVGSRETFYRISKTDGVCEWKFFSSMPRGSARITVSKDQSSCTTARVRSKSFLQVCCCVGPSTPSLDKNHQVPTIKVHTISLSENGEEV

[6] = target: T5, Alpha-1D adrenergic receptor (Homo sapiens, UniProt P25100); assay: The compound was tested for binding affinity on [3H]- prazosin as specific ligand on Human cloned alpha-1D adrenergic receptor in CHO cells; assay type: cell-based
T5 sequence (P25100 whole entry): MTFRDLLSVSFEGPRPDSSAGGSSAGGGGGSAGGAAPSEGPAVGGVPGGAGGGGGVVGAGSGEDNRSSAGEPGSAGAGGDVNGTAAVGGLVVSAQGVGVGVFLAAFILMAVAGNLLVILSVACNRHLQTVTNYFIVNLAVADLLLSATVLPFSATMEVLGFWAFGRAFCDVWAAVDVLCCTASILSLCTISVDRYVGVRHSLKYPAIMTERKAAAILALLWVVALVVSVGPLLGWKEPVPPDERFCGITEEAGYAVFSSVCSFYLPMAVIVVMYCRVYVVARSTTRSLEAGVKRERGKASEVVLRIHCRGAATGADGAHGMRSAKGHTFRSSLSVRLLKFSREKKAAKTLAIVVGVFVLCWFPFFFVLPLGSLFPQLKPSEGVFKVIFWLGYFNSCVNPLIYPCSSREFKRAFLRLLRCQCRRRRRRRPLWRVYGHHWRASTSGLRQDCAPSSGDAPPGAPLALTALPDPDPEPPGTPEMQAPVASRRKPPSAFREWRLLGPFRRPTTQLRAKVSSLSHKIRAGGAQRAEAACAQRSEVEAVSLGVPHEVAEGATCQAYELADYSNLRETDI

Structure (SMILES) | Ki [1] | Ratio [2] | Ki [3] | Ki [4] | Ki [5] | Ki [6]
Cn1nc(Cl)c2cn3nc(NCCN4CCN(c5ccccc5)CC4)ccc3c2c1=O | 129.2 nM | 0.16 | 15.6 nM | 21.2 nM | 1.93 nM | 6.56 nM
COc1ccccc1N1CCN(CCn2nc(-c3ccccc3)c(C(C)=O)c(N)c2=O)CC1 | 24.6 nM | 5.01 | 22.1 nM | 123 nM | 4.75 nM | 0.93 nM
Cn1nc(Cl)c2cn3nc(NCCN4CCN(c5ccccc5Cl)CC4)ccc3c2c1=O | 54.6 nM | 1.03 | 13.6 nM | 56.5 nM | 5.93 nM | 11.9 nM
COc1ccccc1N1CCN(CCNc2ccc3c4c(=O)n(C)nc(Cl)c4cn3n2)CC1 | 73.3 nM | 0.22 | 15.2 nM | 16.3 nM | 1.1 nM | 3.04 nM
